Data reported in PMC10552397 (Cell Communication and Signaling : CCS, 2023).

Tests used:
cathepsin B = biological target: T1, cathepsin B (Homo sapiens, UniProt P07858); assay: Cathepsin B activity assay in treated HeLa cells; format: cell-based; conditions: 24 h, concentration-dependent, HeLa wt
T1 construct: host or cells: HeLa wt cells
Description: Antibodies against β-actin (Sigma-Aldrich, St. Louis, MO, USA, #A5316, clone AC-74, 1:5000), B4GALT1 (Sigma-Aldrich, St. Louis, MO, USA, #HPA010807, 1:200), GAPDH (abcam, Cambridge, UK, #ab8245, 1:5000), GRASP55 (Proteintech, Chicago, IL, USA, #10,598–1-AP, 1:200 for IF and 1:2000 for WB), LAMP1 (Sigma-Aldrich, St. Louis, MO, USA, #L1418, 1:200), LC3B (MBL, Woburn, MA, USA, #M-152–3, 1:200 for IF and Cell Signalling Technology, Danvers, MA, USA, #2775, 1:1000 for WB), SQSTM1 (PROGEN, Heidelberg, Germany, #GP62-C, 1:1000) and TGN46 (Bio-Rad, Hercules, CA, USA, #AHP500GT, 1:200) were used. For WB, IRDye 800- or IRDye 680-conjugated secondary antibodies were purchased from LI-COR Biosciences (Lincoln, NE, USA, #926–68,077, #926–32,211 and #926–32,210). […] The cathepsin activity of treated HeLa cells was quantified using the fluorimetric Cathepsin B Activity Assay Kit (abcam, Cambridge, UK, #ab65300) according to the manufacturer´s instructions and measured with a microplate reader (SynergyMx, BioTek, Winooski, VT, USA).

JUNB = assay: TPP-TR/RTSA, JUNB; format: binding, Homo sapiens; conditions: 100 nM vs DMSO, 6 h, HeLa wt
Protocol: (§1) TPP was performed essentially as described, but with major modifications to the TMT labeling sets and statistical data analysis for TPP-TR.
(§2) Adherent cells were washed in the dish once with DPBS and harvested by Trypsin–EDTA (0.25%, Thermo Fisher Scientific, Waltham, MA, USA, #25,200,056) treatment. […]
(§3) After temperature treatment, samples were supplemented with lysis buffer (final concentrations: 0.36 U/µL benzonase, 1.5 mM MgCl2, 1 mM Na3VO4, 10 mM NaF, 2.5 mM Na4P2O7, 0.8% w/v NP-40) for 1 h on ice. […] The total protein concentration of the resulting cell extracts containing the fraction of soluble, non-denatured proteins was determined (Pierce 660 nm Protein Assay, BSA as standard). […] The two (37 °C or 50 °C) x ten (concentrations) x three (replicates) = 60 TPP-CCR samples and two (treatment and control) x ten (temperatures) x three (replicates) = 60 TPP-TR samples were analyzed by LC–MS/MS. GRASP55 was additionally quantified from the TPP-TR samples by immunoblotting as described in the respective section.
(§4) For TPP-CCR, SP3 was performed as described with slight modifications to the original protocol using on average 5 µg total protein per sample and resulting in theoretically 5 µg peptides in 22 µL 50 mM triethylammonium bicarbonate per sample. […] This volume was calculated such that the lowest two temperature samples (36.5 °C and 41.2 °C) contained 10 µg total protein on average. […]

JUN = assay: TPP-TR/RTSA, JUN; format: binding, Homo sapiens; conditions: 100 nM vs DMSO, 6 h, HeLa wt
Protocol: as §1, §2, §3, §4

Question: For CCCCCC1=C/C(=C/c2[nH]c(-c3ccc[nH]3)cc2OC)N=C1C [Prodigiosin, prodigiosin], which “cathepsin B activity” value (cathepsin B) is on record?
Answer: The value was “significantly reduced”.

Question: And the Mean_dTm (JUNB)?
Answer: The Mean_dTm was 2.343.

Question: What about the Mean_dTm (JUN) of the same compound?
Answer: The Mean_dTm was -0.6723.
